Assays:
Assay type in all cases: functional, cell-based
[1] = tested on: A549; assay: Cytotoxicity against human A549 cells
[2] = tested on: SK-MEL-28; assay: Cytotoxicity against human SK-MEL-28 cells
[3] = tested on: P388; assay: Cytotoxicity against mouse P388 cells
[4] = tested on: HT-29; assay: Cytotoxicity against human HT-29 cells
[5] = tested on: DU-145; assay: Cytotoxicity against human DU145 cells

COC(=O)c1cccc2c3c(n(O)c12)C(O)(C=O)C=CC3=O (stereo not given) [COPROVERDINE]
IC50 [1]: 0.3 µM
IC50 [2]: 0.3 µM
IC50 [3]: 1.6 µM
IC50 [4]: 0.3 µM
IC50 [5]: 0.3 µM
